From patent publication US11660303B2, “2-phenylimidazo[4,5-b]pyridin-7-amine derivates useful as inhibitors of mammalian tyrosine kinase ROR1 activity” (KANCERA AB, priority 2016, dated 2023)
pIC50: −log10 of the molar value.

Columns and labels:
[1] = system: PBMC from healthy volunteers; experiment: CellTiter-Blue Cell Viability Assay, PBMC from healthy volunteers; format: cell-based; settings: Homo sapiens, cell toxicity, culture 24, 48 and 72 h (time of the values not stated)
Experimental: (§1) The CellTiter-Blue® Cell Viability Assay provides a homogeneous, fluorometric method for estimating the number of viable cells present in multi-well plates. The assay uses the indicator dye resazurin to measure the metabolic capacity of cells. Viable cells retain the ability to reduce resazurin into resorufin, which is highly fluorescent.
(§2) Stock solutions (10 or 100 mM in DMSO) of compounds were serially diluted 1:2 in 11 concentrations and 25 nL/well (100 mM stock) or 50 nL/well (10 mM stock) were acoustically dispensed in assay plates with an EDC acoustic dispenser. Final starting concentration in the assay was 20 μM (0.2% DMSO) or 100 μM (0.1% DMSO) for test compounds.
(§3) Peripheral blood mononuclear cells (PBMC) from CLL patients or healthy volunteers were seeded in assay plates (384-well black/clear, Greiner #781091) pre-dispensed with compounds, 25 μL/well, and cultured for 24, 48 and 72 h. The cell concentration was 50 000 cells/well for PBMC from CLL patients or healthy volunteers. After 24, 48 and 72 h culture, Celltiter Blue reagent was added (5 μL/well) and the plates were incubated for 2 h. The plates were read in an Envision fluorescence reader (PerkinElmer) with Ex544 nm/Em590 nm. Results were calculated as % cytotoxicity compared to background (cells treated with 0.2% DMSO).
(§4) Thus, IC50 values for cell toxicity in PBMC from CLL patients as well as healthy volunteers for some compounds of the invention are shown in Table 3 as measured by the CellTiter-Blue® Cell Viability Assay.

PBMC from CLL patients = experiment: CellTiter-Blue Cell Viability Assay, PBMC from CLL patients; format: cell-based; settings: Homo sapiens, cell toxicity, culture 24, 48 and 72 h (time of the values not stated)
Experimental: as §1, §2, §3, §4

| SMILES | pIC50 [1] | pIC50 (PBMC from CLL patients) |
| --- | --- | --- |
| CN1CCC(Nc2c(Cl)cnc3[nH]c(-c4ccc(N5CCN(C)CC5)cc4)nc23)CC1 [Example 2, 6-Chloro-2-[4-(4-methylpiperazin-1-yl)phenyl]-N-(1-methylpiperidin-4-yl)-3H-imidazo[4,5-b]pyridin-7-amine] | < 4.70 | 6.80 |
| CCN1CCN(c2ccc(-c3nc4c(NC5CCN(C)CC5)c(Br)cnc4[nH]3)cc2)CC1 [Example 10, 6-Bromo-2-[4-(4-ethylpiperazin-1-yl)phenyl]-N-(1-methylpiperidin-4-yl)-3H-imidazo[4,5-b]pyridin-7-amine] | < 4.70 | 6.96 |
| COCCN1CCN(c2ccc(-c3nc4c(NC5CCN(Cc6ccc(OC)cc6)CC5)c(Cl)cnc4[nH]3)cc2)CC1 [Example 14, 6-Chloro-N-[1-(4-methoxybenzyl)piperidin-4-yl]-2-{4-[4-(2-methoxyethyl)piperazin-1-yl]phenyl}-3H-imidazo[4,5-b]pyridin-7-amine] | 4.81 | 6.38 |
| CN1CCC(Nc2c(Br)cnc3[nH]c(-c4ccc(N5CCN(c6ccncc6)CC5)cc4)nc23)CC1 [Example 16, 6-Bromo-N-(1-methylpiperidin-4-yl)-2-[4-(4-pyridin-4-ylpiperazin-1-yl)phenyl]-3H-imidazo[4,5-b]pyridin-7-amine] | 4.76 | 7.10 |
| CN1CCC(Nc2c(Cl)cnc3[nH]c(-c4ccc(N5CCCN(C)CC5)cc4)nc23)CC1 [Example 22, 6-Chloro-2-[4-(4-methyl-1,4-diazepan-1-yl)phenyl]-N-(1-methylpiperidin-4-yl)-3H-imidazo[4,5-b]pyridin-7-amine] | 4.73 | 6.77 |
| CN1CCC(Nc2c(Cl)cnc3[nH]c(-c4ccc(N5CCOCC5)cc4)nc23)CC1 [Example 27, 6-Chloro-N-(1-methylpiperidin-4-yl)-2-(4-morpholin-4-ylphenyl)-3H-imidazo[4,5-b]pyridin-7-amine] | 4.75 | 7.05 |
| COc1ccc(CN2CCC(Nc3c(Cl)cnc4[nH]c(-c5ccc(N6CCN(C(C)=O)CC6)cc5)nc34)CC2)cc1 [Example 35, 2-[4-(4-Acetylpiperazin-1-yl)phenyl]-6-chloro-N-[1-(4-methoxybenzyl)piperidin-4-yl]-3H-imidazo[4,5-b]pyridin-7-amine] | < 4.70 | 6.37 |
| CN1CCC(Nc2c(Cl)cnc3[nH]c(-c4ccc(N5CCNC(=O)C5)cc4)nc23)CC1 [Example 37, 4-(4-{6-Chloro-7-[(1-methylpiperidin-4-yl)amino]-3H-imidazo[4,5-b]pyridin-2-yl}phenyl)piperazin-2-one] | < 4.70 | 6.54 |
| COc1ccc(CN2CCC(Nc3c(Cl)cnc4[nH]c(-c5ccc(N6CCN(S(C)(=O)=O)CC6)cc5)nc34)CC2)cc1 [Example 44, 6-Chloro-N-[1-(4-methoxybenzyl)piperidin-4-yl]-2-{4-[4-(methylsulfonyl)piperazin-1-yl]phenyl}-3H-imidazo[4,5-b]pyridin-7-amine] | < 4.70 | 6.36 |
| CCN1CCC(Nc2c(Br)cnc3[nH]c(-c4ccc(N5CCNC(=O)CC5)cc4)nc23)CC1 [Example 53, 1-(4-{6-Bromo-7-[(1-ethylpiperidin-4-yl)amino]-3H-imidazo[4,5-b]pyridin-2-yl}phenyl)-1,4-diazepan-5-one] | < 4.70 | 6.32 |
| COCCN1CCCN(c2ccc(-c3nc4c(NC5CCN(C(C)C)CC5)c(Cl)cnc4[nH]3)cc2)CC1 [Example 63, 6-Chloro-2-{4-[4-(2-methoxyethyl)-1,4-diazepan-1-yl]phenyl}-N-[1-(1-methylethyl)piperidin-4-yl]-3H-imidazo[4,5-b]pyridin-7-amine] | < 4.70 | 6.02 |
| CCOCCN1CCN(c2ccc(-c3nc4c(NC5CCN(CC)CC5)c(Cl)cnc4[nH]3)cc2)CC1 [Example 70, 6-Chloro-2-{4-[4-(2-ethoxyethyl)piperazin-1-yl]phenyl}-N-(1-ethylpiperidin-4-yl)-3H-imidazo[4,5-b]pyridin-7-amine] | < 4.70 | 6.80 |
| Clc1cnc2[nH]c(-c3ccc(N4CCOCC4)cc3)nc2c1NC1CCN(Cc2cccs2)CC1 [Example 83, 6-Chloro-2-(4-morpholin-4-ylphenyl)-N-[1-(thiophen-2-ylmethyl)piperidin-4-yl]-3H-imidazo[4,5-b]pyridin-7-amine] | < 4.70 | 6.00 |
| CC(C)OCCN1CCN(c2ccc(-c3nc4c(NC5CCN(Cc6ccc(N(C)C)cc6)CC5)c(Cl)cnc4[nH]3)cc2)CC1 [Example 90, 6-Chloro-N-{1-[4-(dimethylamino)benzyl]piperidin-4-yl}-2-(4-{4-[2-(1-methylethoxy)ethyl]piperazin-1-yl}phenyl)-3H-imidazo[4,5-b]pyridin-7-amine] | < 4.70 | 6.06 |
| CN1CCC(Nc2c(Cl)cnc3[nH]c(-c4ccc(N5CCN(Cc6ccccn6)CC5)cc4)nc23)CC1 [Example 98, 6-Chloro-N-(1-methylpiperidin-4-yl)-2-{4-[4-(pyridin-2-ylmethyl)piperazin-1-yl]phenyl}-3H-imidazo[4,5-b]pyridin-7-amine] | < 4.70 | 7.22 |
| COCCN1CCN(c2ccc(-c3nc4c(NC5CCN(Cc6ccc(O)c(OC)c6)CC5)c(Cl)cnc4[nH]3)cc2)CC1 [Example 103, 4-({4-[(6-Chloro-2-{4-[4-(2-methoxyethyl)piperazin-1-yl]phenyl}-3H-imidazo[4,5-b]pyridin-7-yl)amino]piperidin-1-yl}methyl)-2-methoxyphenol] | < 4.70 | 6.46 |
| CN1CCC(Nc2c(Br)cnc3[nH]c(-c4ccc(N5CCN(Cc6ccccn6)CC5)cc4)nc23)CC1 [Example 115, 6-Bromo-N-(1-methylpiperidin-4-yl)-2-{4-[4-(pyridin-2-ylmethyl)piperazin-1-yl]phenyl}-3H-imidazo[4,5-b]pyridin-7-amine] | 4.79 | 7.40 |
| Cc1noc(C)c1CN1CCN(c2ccc(-c3nc4c(NC5CCN(C)CC5)c(Cl)cnc4[nH]3)cc2)CC1 [Example 119, 6-Chloro-2-(4-{4-[(3,5-dimethylisoxazol-4-yl)methyl]piperazin-1-yl}phenyl)-N-(1-methylpiperidin-4-yl)-3H-imidazo[4,5-b]pyridin-7-amine] | 4.77 | 7.40 |
| CN1CC[C@H](Nc2c(Cl)cnc3[nH]c(-c4ccc(N5CCN(Cc6ccncc6)CC5)cc4)nc23)C1 [Example 126, 6-Chloro-N-[(3S)-1-methylpyrrolidin-3-yl]-2-{4-[4-(pyridin-4-ylmethyl)piperazin-1-yl]phenyl}-3H-imidazo[4,5-b]pyridin-7-amine] | < 4.70 | 6.89 |
| CCN1CCC(Nc2c(Cl)cnc3[nH]c(-c4ccc(N5CCN(Cc6cccc(C)n6)CC5)cc4)nc23)CC1 [Example 142, 6-Chloro-N-(1-ethylpiperidin-4-yl)-2-(4-{4-[(6-methylpyridin-2-yl)methyl]piperazin-1-yl}phenyl)-3H-imidazo[4,5-b]pyridin-7-amine] | 4.83 | 6.62 |
| CC(C)N1CCC(Nc2c(Br)cnc3[nH]c(-c4ccc(N5CCN(Cc6ccncc6)CC5)cc4)nc23)CC1 [Example 151, 6-Bromo-N-[1-(1-methylethyl)piperidin-4-yl]-2-{4-[4-(pyridin-4-ylmethyl)piperazin-1-yl]phenyl}-3H-imidazo[4,5-b]pyridin-7-amine] | 4.86 | 6.41 |
| CN1CC[C@H](Nc2c(Br)cnc3[nH]c(-c4ccc(N5CCN(Cc6cncnc6)CC5)cc4)nc23)C1 [Example 157, 6-Bromo-N-[(3S)-1-methylpyrrolidin-3-yl]-2-{4-[4-(pyrimidin-5-ylmethyl)piperazin-1-yl]phenyl}-3H-imidazo[4,5-b]pyridin-7-amine] | < 4.70 | 6.54 |
| CC(C)N1CCC(Nc2c(Cl)cnc3[nH]c(-c4ccc(N5CCN(Cc6cccnc6)CC5)cc4)nc23)CC1 [Example 168, 6-Chloro-N-[1-(1-methylethyl)piperidin-4-yl]-2-{4-[4-(pyridin-3-ylmethyl)piperazin-1-yl]phenyl}-3H-imidazo[4,5-b]pyridin-7-amine] | 4.76 | 6.64 |
| CCN1CCC(Nc2c(Br)cnc3[nH]c(-c4ccc(N5CCN(Cc6cccnc6)CC5)cc4)nc23)CC1 [Example 174, 6-Bromo-N-(1-ethylpiperidin-4-yl)-2-{4-[4-(pyridin-3-ylmethyl)piperazin-1-yl]phenyl}-3H-imidazo[4,5-b]pyridin-7-amine] | < 4.70 | 8.00 |
| COCCN1CCN(c2ccc(-c3nc4c(NC5CCN(C)CC5)c(Cl)cnc4[nH]3)cc2)CC1=O [Example 230, 4-(4-{6-Chloro-7-[(1-methylpiperidin-4-yl)amino]-3H-imidazo[4,5-b]pyridin-2-yl}phenyl)-1-(2-methoxyethyl)piperazin-2-one] | < 4.70 | 7.15 |
| CCN1CCC(Nc2c(Br)cnc3[nH]c(-c4ccc(N5CCN(C(=O)COC)CC5)cc4)nc23)CC1 [Example 239, 6-Bromo-N-(1-ethylpiperidin-4-yl)-2-{4-[4-(methoxyacetyl)piperazin-1-yl]phenyl}-3H-imidazo[4,5-b]pyridin-7-amine] | < 4.70 | 7.00 |
